Here are results for one compound from patent US7416741B2, “Copper lowering treatment of inflammatory and fibrotic diseases” (The Regents of the University of Michigan, priority 2002, dated 2008).

The test system of one data set is TNFα. Put plainly: Plasma TNFα in Con A treated mice. Conditions: Ex 5 Exp 3; TM from 5 days before first of two Con A injections; 2 hrs after last; p=0.03. The class given is in vivo, mouse. From the text:
In a third experiment, two Con A injections one week apart were given to 10 mice. Five of the mice had begun TM treatment 5 days prior to the first injection. All the mice were sacrificed 2 hrs after the last Con A injection.

The nature of data set [1]: Body weight and hematocrit in the bleomycin mouse model. As to conditions: for Weight / Hematocrit: sacrifice day 21; for protection against weight loss from bleomycin: Ex 1 Exp 2; for mean hematocrit: day 21. The class given is in vivo. The procedure:
Mice. Female CBA/J mice at 8-10 weeks of age were from the Jackson Laboratories (Bar Harbor, Me.). These mice weighed an average of 21.4 g at the start of experiments, with a standard deviation of 1.7 g.
Bleomycin treatment. This was undertaken on day 0 by endotracheal instillation through the oral cavity after exposure of the airway by pulling the tongue. Each mouse received 0.001 units of bleomycin (Bristol-Myers, Evansville, Ind.)/gm body weight in 30 μl of sterile saline, while control mice received an equal volume of sterile saline only.
TM treatment experiments. TM was given in 0.25 ml of water by intragastric gavage once daily, in the doses and times indicated in the various studies as described below.
There were four experimental groups of five to seven mice each. Group 1 received bleomycin, group 2 was a saline control, group 3 received bleomycin and TM therapy, and group 4 was a TM therapy control. The TM was given in a dose of 0.7 mg/mouse/day beginning 7 days prior to bleomycin treatment. During days 9 to 11 after bleomycin, the TM-treated mice received 1.2 mg of TM daily, to ensure adequate lowering of copper levels, and then received 0.7 mg daily for the duration of the study. The mice were sacrificed 21 days after bleomycin treatment.
In this experiment, the effect of TM at different doses after bleomycin administration was examined. Experimental groups of four bleomycin-treated and two to four control (non-bleomycin treated) mice were given varying doses of TM. Initially, All TM-treated mice received identical loading doses of 1.2 mg/mouse/day for 3 days (minus 5 to minus 3 days) prior to bleomycin administration. From that point on, groups of mice were given 0.3, 0.5, 0.7, or 0.9 mg of TM/mouse/day until sacrifice at day 21 after bleomycin treatment. A group of four bleomycin treated and a group of four non-bleomycin treated mice received no TM.
Three experiments were carried out. Experiment 1 comprised four groups of three mice each. Group 1 received bleomycin only, group 2 received bleomycin and TM therapy, group 3 received saline in the trachea rather than bleomycin, and group 4 received TM therapy only. The mice in groups 2 and 4 each received 1.2 mg of TM per day for four days prior to bleomycin, and then were given 0.9 mg TM per day until sacrifice at seven days after bleomycin.
Experiment 2 comprised four groups of five mice each. The four groups were assigned as in experiment 1 to bleomycin, bleomycin and TM, saline rather than bleomycin, and TM only. Groups 2 and 4 were started on TM five days after bleomycin treatment at a dose of 1.2 mg per day for four days, and then 0.9 mg per day until sacrifice at day 21.

For another data set, the system named is Lysyl oxidase. Put plainly: Lysyl oxidase in the lungs, bleomycin model. The class given is in vivo, mouse. Conditions: Ex 2 Exp 1; TM treated vs non-TM treated animals.
Another data set has as its system Aβ40 and Aβ42. Nature of the data set: Aβ40 and Aβ42 ELISA in brain homogenates of Tg2576 mice. The class given is in vivo. As to conditions: Ex 8, TM 0.7 mg/mouse daily from 9 to 15 months of age. The procedure:
A study is carried out in an mouse model of Alzheimer's disease. The mouse model is the Tg2576 mouse model, as described above in the Description of the Invention and in further detail in Gau et al., 2002 (J Gau et al., Amer. J. Pathology, 160(2):731-738 [2002]; J Q Trojanowski, Amer. J. Pathology, 160(2):409-411 [2002]). These mice begin developing amyloid plaques at about 9 months of age and plaques are well developed by 15 months. The transgenic mice also develop progressive age-dependent cognitive and behavioral abnormalities described in the background.
Forty female Tg2576 mice, aged 3 months, are purchased from Tagonic Inc, and grown until 9 months of age, at which time they are divided into two groups of 20. One group begins treatment with TM at 9 months of age, and are treated until sacrifice at age 15 months. […] Cp is determined by an oxidase method. […] The weight of the mice is determined weekly. […]
After 6 months of treatment with water or TM, all mice in both groups are sacrificed painlessly, and the brains removed and divided sagitally. […] Analysis of amyloid plaque load in mouse brains is determined by light-microscopic semi-quantitative analysis of brain sections. Subtle effects of treatment are measured by a more rigorous quantitative analysis of amyloid plaques in brain sections to detect a significant difference. […]

On to `[SH-].[SH-].[S]=[Mo]=[S]` [TM, tetrathiomolybdate], for which the “Plasma levels of TNFα” value in the data set on TNFα is listed as “significantly lower”. Besides, the Weight in data set [1] (Ex 1 Exp 1, Bleomycin/TM group, TM 0.7 mg/mouse/day gavage from 7 days before bleomycin) was found to be 21.2 ± 0.8 g; in data set [1] (Ex 1 Exp 1, TM only group (no bleomycin), 0.7 mg/mouse/day) it was 20.4 ± 1.0 g. The Hematocrit in data set [1] (Ex 1 Exp 1, Bleomycin/TM group) came to 39.7 ± 2.6; in data set [1] (Ex 1 Exp 1, TM only group), 44.1 ± 1.0. Moreover, the “effect of TM alone on weight” value in data set [1] (Ex 1 Exp 1, TM alone (group 4)) is on record as “tended to produce some weight loss”. Further, the “protection against bleomycin induced weight loss” value in data set [1] (Ex 1 Exp 1, bleomycin/TM group) was “protected against some of the bleomycin induced weight loss”. The “protection against weight loss from bleomycin” value is “only slightly protective” in data set [1] (0.3 mg TM dose), “intermediately protective” in data set [1] (0.5 mg TM dose), “intermediately protective” in data set [1] (0.7 mg TM dose) and “fully protective” in data set [1] (0.9 mg TM dose). Moreover, the “mean weight in the bleomycin/TM group” value in data set [1] (Ex 2 Exp 1, sacrifice day 7) is “almost exactly the same as the saline control group”. Further, the mean hematocrit in data set [1] (Ex 2 Exp 2, TM group) is on record as 43.8%; in data set [1] (Ex 2 Exp 2, bleomycin/TM group), 44.3%. In addition, the “mean weight at the time of sacrifice” value in data set [1] (Ex 2 Exp 2, bleomycin/TM group, TM started 5 days after bleomycin) was 19.6 g. Further, in the data set on Lysyl oxidase, the “lysyl oxidase activity in the lungs” value is reported as “not inhibited”. Also, the “mean reduction in Aβ40 and Aβ42 levels in brain homogenates” value with Aβ40 and Aβ42 is listed as “up to 50%”.
